Residues, ends and D or L forms follow the SMILES beside them. *: point of attachment. Biotin = O=C1N[C@H]2[C@H](CS[C@H]2CCCCC(=O)*)N1
Experiments:
cyclin D1 = assay: Immunoblot analysis of lung cyclin D1 in MCT rats; assay type: in vivo, Sprague-Dawley rats
Experimental: (§1) Male Sprague-Dawley rats (Charles River, Wilmington, Mass.) weighing between 250-300 g received a single intraperitoneal (ip) injection of either 0.5 ml 0.9% NaCl or 0.5 ml 60 mg/kg MCT. Thirty minutes later, rats were randomly assigned to receive a daily ip injection of either 0.5 ml 0.9% NaCl, 0.5 ml AP (2.5 mg/kg/d) or 0.5 ml AP-Cav (2.5 mg/kg/d) for 2 weeks.
(§2) Immunoblot Analysis. Lung samples from Control (n=17), Control+AP-Cav (n=10), MCT (n=25), MCT+AP (n=19), and MCT+AP-Cav (n=24) groups were homogenized in a RIPA lysis buffer containing protease and phosphatase inhibitors. Proteins were then separated by SDS-PAGE (12% acrylamide) and transferred to nitrocellulose membranes. The membranes were placed in blocking solution for 30 min. Afterwards, the membranes were washed and incubated with a given primary antibody for 1 hour (Cav-1, -2 and β-actin) or 3 hours (eNOS, STAT3, PY-STAT3, cyclin D1, and cyclin D3). […] Western blots for Cav-1, Cav-2, eNOS, PY-STAT3, cyclin D1 and cyclin D3 were subsequently quantitated using the NIH Image J software (using the mean gray value for each band).
(§3) Statistical Analysis. Hemodynamic and morphometric variables as well as the mean gray value of each western blot are expressed as mean±S.E.M. Differences between the 5 groups were evaluated by ANOVA, followed by Tukey's multiple-group comparisons test. […]

Control rats = assay: Hemodynamic and morphometric variables in Control rats (0.9% NaCl instead of MCT); assay type: in vivo, Sprague-Dawley rats
Experimental: as §1
(§4) At two weeks, rats were anesthetized with xylazine (10 mg/kg)-ketamine (50 mg/kg) followed by 2000 U heparin (Sigma-Aldrich). The right jugular vein and carotid artery were then isolated and incised, and millar catheters (SPR-249, Millar Instruments, Houston, Tex.) were advanced into the right and left ventricles (RV and LV) for hemodynamic measurements. The RV and LV pressures were recorded with the Ponemah P3-Data acquisition system (LDS Test and Measurement, Middleton, Wis.).
(§5) Afterwards, the lower lobe of the right lung and the heart were dissected and weighed to respectively determine pulmonary edema and RV hypertrophy, as previously described^11. The remaining lobes of the right lung were submerged in liquid nitrogen and frozen at −80° C. The left pulmonary artery was then cannulated and perfused with 4% paraformaldehyde (PFA) for 2 min. This was followed by perfusion of the airways with 4% PFA for 2 min. The left lung was then immersed in 4% PFA for 24 hours.
(§6) Statistical Analysis. Hemodynamic and morphometric variables as well as the mean gray value of each western blot are expressed as mean±S.E.M. Differences between the 5 groups were evaluated by ANOVA, followed by Tukey's multiple-group comparisons test. Statistical significance was assumed at p<0.05.

Cav-1 [1] = assay: Dual-label immunofluorescence analysis of Cav-1 in pulmonary arteries of MCT rats; assay type: in vivo, Sprague-Dawley rats
Experimental: as §1
(§7) Immunofluorescence Analysis. As mentioned above, the left lung of Control (n=17), Control+AP-Cav (n=10), MCT (n=25), MCT+AP (n=19), and MCT+AP-Cav (n=24) rats was dissected and perfused-fixed. Transverse sections were obtained and embedded with paraffin. Sections of 10 μm were cut and stained with hematoxylin and eosin (H&E).
(§8) Paraffin from 10 μm-thick sections was removed by immersion in xylene. These sections were then rehydrated with graded alcohol to water and blocked overnight. The sections were subsequently incubated with a given primary antibody for three hours. FITC- and TRITC-conjugated secondary antibodies were then added to the sections after a 15 min wash in PBS. After 1 hr of incubation with the secondary antibodies, the sections were washed in PBS and mounted using Prolong Gold antifade reagent (Molecular Probes, Carlsbad, Calif.).

Cav-2 [2] = assay: Dual-label immunofluorescence analysis of Cav-2 in pulmonary arteries of MCT rats; assay type: in vivo, Sprague-Dawley rats
Experimental: as §1, §7, §8

Cav-2 [3] = assay: Immunoblot analysis of lung Cav-2 protein levels in MCT rats; assay type: in vivo, Sprague-Dawley rats
Experimental: as §1, §2, §3

[4] = system: pulmonary arteries of Control rats; assay: Lung vascular morphometry (percent medial wall thickness) in Control rats; assay type: in vivo, Sprague-Dawley rats; conditions: data not shown
Experimental: as §1
(§9) Lung Vascular Morphometry. H&E sections of the left lung (n=10 for each groups) were microscopically assessed for the medial wall thickness of pulmonary arteries. Measurements of the luminal diameter and the medial thickness on either side were obtained using the Image J software. Measurements were made on 30 muscular arteries (<50 μm, 51-100 μm, and 100-150 μm of external diameter) per lung section. The medial wall thickness was then related to the external diameter and expressed as percent wall thickness, as previously described^20.
as §6

mice = conditions: in vivo delivery, previous reports (refs 17;18); cited from earlier work
Cav-1 [5] = assay: Immunoblot analysis of lung Cav-1 protein levels in MCT rats; assay type: in vivo, Sprague-Dawley rats
Experimental: as §1, §2, §3

cyclin D3 = assay: Immunoblot analysis of lung cyclin D3 in MCT rats; assay type: in vivo, Sprague-Dawley rats
Experimental: as §1, §2, §3

rats with MCT-induced PH = assay: Hemodynamic and morphometric variables in rats with MCT-induced PH; assay type: in vivo, Sprague-Dawley rats; conditions: MCT 60 mg/kg ip rats, peptide 2.5 mg/kg/d ip for 2 weeks; for RV/LV+septum weight ratio: Control rats 25.3±0.5, MCT rats 31.1±0.6; for RV systolic pressures: Control rats 26.0±0.9, MCT rats 40.2±1.5; for BW (body weight) / CVP (central venous pressure) / Dry lung weight/BW / Dry/wet lung weight / HR (heart rate) / LV(+)dP/dt / LV(−)dP/dt / LV/BW / LVEDP (LV-end diastolic pressure) / MAP (mean arterial pressure) / RV(+)dP/dt / RV(−)dP/dt / RV/BW / RVEDP (RV-end diastolic pressure) / Wet lung weight/BW: mean±S.E.M.
Experimental: as §1, §4, §5, §6

PY-STAT3 = assay: Immunoblot analysis of lung PY-STAT3 in MCT rats; assay type: in vivo, Sprague-Dawley rats
Experimental: as §1, §2, §3

[6] = system: pulmonary arteries of MCT rats; assay: Lung vascular morphometry (percent medial wall thickness) in MCT rats; assay type: in vivo, Sprague-Dawley rats
Experimental: as §1, §9, §6

[7] = Control rats (no MCT), peptide 2.5 mg/kg/d ip for 2 weeks, mean±S.E.M.

(biotin)-RQPKTWFPNRRKPWKK-DGIWKASFTTFTVTKYWFYR (SEQ ID NO:10)—(OH) [AP-Cav]
pulmonary cyclin D1 expression (effect in words) (cyclin D1; 2.5 mg/kg/d ip for 2 weeks): prevented the upregulation
BW (body weight) (Control rats; [7]): 407 ± 12 g
CVP (central venous pressure) (Control rats; [7]): 3.1 ± 0.1 mmHg
Dry lung weight/BW (Control rats; [7]): 0.019 ± 0.000%
Dry/wet lung weight (Control rats; [7]): 20.8 ± 0.1%
HR (heart rate) (Control rats; [7]): 270 ± 6 beats/min
LV(+)dP/dt (Control rats; [7]): 6216 ± 446 mmHg/s
LV(−)dP/dt (Control rats; [7]): 4614 ± 320 mmHg/s
LV/BW (Control rats; [7]): 0.194 ± 0.005%
LVEDP (LV-end diastolic pressure) (Control rats; [7]): 3.0 ± 0.3 mmHg
MAP (mean arterial pressure) (Control rats; [7]): 79.4 ± 3.4 mmHg
RV(+)dP/dt (Control rats; [7]): 1435 ± 60 mmHg/s
RV(−)dP/dt (Control rats; [7]): 988 ± 46 mmHg/s
RV/BW (Control rats; [7]): 0.050 ± 0.001%
RVEDP (RV-end diastolic pressure) (Control rats; [7]): 2.8 ± 0.2 mmHg
Wet lung weight/BW (Control rats; [7]): 0.091 ± 0.001%
effect on hemodynamic and morphometric variables (Control rats; Control rats, compared to Control group receiving 0.9% NaCl alone): did not affect
Cav-1 expression in pulmonary arteries (Cav-1 [1]): prevented
Cav-2 expression in pulmonary arteries (Cav-2 [2]): prevented
pulmonary Cav-2 protein levels (effect in words) (Cav-2 [3]; 2.5 mg/kg/d ip for 2 weeks): significantly prevented the reduction
percent medial wall thickness of pulmonary arteries (effect in words) [4]: had no effect
systemic blood pressure, blood flow, and heart rate (mice): had no effect
pulmonary Cav-1 protein levels (effect in words) (Cav-1 [5]; 2.5 mg/kg/d ip for 2 weeks): significantly prevented the reduction
pulmonary cyclin D3 expression (effect in words) (cyclin D3; 2.5 mg/kg/d ip for 2 weeks): prevented the upregulation
RV/LV+septum weight ratio (rats with MCT-induced PH): 24.6±0.5%
RV systolic pressures (rats with MCT-induced PH): 30.1±1.3 mmHg
BW (body weight) (rats with MCT-induced PH): 371 ± 9 g
CVP (central venous pressure) (rats with MCT-induced PH): 3.2 ± 0.2 mmHg
Dry lung weight/BW (rats with MCT-induced PH): 0.028 ± 0.001 %
Dry/wet lung weight (rats with MCT-induced PH): 20.7 ± 0.3%
HR (heart rate) (rats with MCT-induced PH): 261 ± 12 beats/min
LV(+)dP/dt (rats with MCT-induced PH): 5766 ± 335 mmHg/s
LV(−)dP/dt (rats with MCT-induced PH): 3891 ± 309 mmHg/s
LV/BW (rats with MCT-induced PH): 0.200 ± 0.003%
LVEDP (LV-end diastolic pressure) (rats with MCT-induced PH): 2.7 ± 0.3 mmHg
MAP (mean arterial pressure) (rats with MCT-induced PH): 82.6 ± 2.9 mmHg
RV(+)dP/dt (rats with MCT-induced PH): 1489 ± 18 mmHg/s
RV(−)dP/dt (rats with MCT-induced PH): 1107 ± 61 mmHg/s
RV/BW (rats with MCT-induced PH): 0.049 ± 0.001 %
RVEDP (RV-end diastolic pressure) (rats with MCT-induced PH): 3.0 ± 0.2 mmHg
Wet lung weight/BW (rats with MCT-induced PH): 0.132 ± 0.004 %
STAT3 signaling cascade (PY-STAT3) in the lungs (effect in words) (PY-STAT3; 2.5 mg/kg/d ip for 2 weeks): prevented the hyper-activation
percent medial wall thickness of pulmonary arteries (effect in words) ([6]; 2.5 mg/kg/d ip for 2 weeks): significantly reduced

CC[C@H](C)[C@H](NC(=O)[C@H](CCCCN)NC(=O)[C@@H]1CCCN1C(=O)[C@H](CCC(N)=O)NC(=O)[C@H](CCCNC(=N)N)NC(=O)CCCC[C@@H]1SC[C@@H]2NC(=O)N[C@@H]21)C(=O)N[C@@H](Cc1c[nH]c2ccccc12)C(=O)N[C@@H](Cc1ccccc1)C(=O)N1CCC[C@H]1C(=O)N[C@@H](CC(N)=O)C(=O)N[C@@H](CCCNC(=N)N)C(=O)N[C@@H](CCCNC(=N)N)C(=O)N[C@@H](CCCCN)C(=O)N1CCC[C@H]1C(=O)N[C@@H](Cc1c[nH]c2ccccc12)C(=O)N[C@@H](CCCCN)C(=O)N[C@@H](CCCCN)C(=O)O [AP, (biotin)-RQPKIWFPNRRKPWKK (SEQ ID NO:1)—(OH)] (Biotin-RQPKIWFPNRRKPWKK-OH)
increase in cyclin D1 protein levels in the lungs (cyclin D1; vs Control rats): ~4 fold
Cav-1 expression in pulmonary arteries (Cav-1 [1]): marked reductions
Cav-2 expression in pulmonary arteries (Cav-2 [2]): marked reductions
decrease of Cav-2 protein levels in the lungs (Cav-2 [3]; vs Control rats): ~2 fold
decrease of Cav-1 protein levels in the lungs (Cav-1 [5]; vs Control rats): ~3 fold
increase in cyclin D3 protein levels in the lungs (cyclin D3; vs Control rats): ~4 fold
RV/LV+septum weight ratio (rats with MCT-induced PH): 30.6±0.6%
RV systolic pressures (rats with MCT-induced PH): 39.6±1.5 mmHg
BW (body weight) (rats with MCT-induced PH): 335 ± 7 g
CVP (central venous pressure) (rats with MCT-induced PH): 5.1 ± 0.3 mmHg
Dry lung weight/BW (rats with MCT-induced PH): 0.033 ± 0.001 %
Dry/wet lung weight (rats with MCT-induced PH): 19.7 ± 0.4%
HR (heart rate) (rats with MCT-induced PH): 274 ± 12 beats/min
LV(+)dP/dt (rats with MCT-induced PH): 6268 ± 339 mmHg/s
LV(−)dP/dt (rats with MCT-induced PH): 4319 ± 286 mmHg/s
LV/BW (rats with MCT-induced PH): 0.200 ± 0.004%
LVEDP (LV-end diastolic pressure) (rats with MCT-induced PH): 2.7 ± 0.3 mmHg
MAP (mean arterial pressure) (rats with MCT-induced PH): 85.3 ± 4.4 mmHg
RV(+)dP/dt (rats with MCT-induced PH): 1931 ± 78 mmHg/s
RV(−)dP/dt (rats with MCT-induced PH): 1395 ± 72 mmHg/s
RV/BW (rats with MCT-induced PH): 0.061 ± 0.002 %
RVEDP (RV-end diastolic pressure) (rats with MCT-induced PH): 5.1 ± 0.3 mmHg
Wet lung weight/BW (rats with MCT-induced PH): 0.170 ± 0.007 %
increased levels of PY-STAT3 in the lungs (PY-STAT3; vs Control rats): ~5 fold
increased percent medial wall thickness of pulmonary arteries ([6]; arteries <50 μm, 51-100 μm, 100-150 μm, vs Control rats): 2-3 fold

Source: patent US20090068258A1, “Caveolin-mimetic peptide for prevention and treatment of pulmonary hypertension and right ventricular hypertrophy” (priority 2007, published 2009)
